Results taken from PubChem BioAssay AID720570 (Broad Institute, 2013).
Several values for one entry are separate records, joined by “and”; a condition that tells them apart may be missing. Equal entries are not always repeated. Activity calls are given as the source filed them.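 The calls were made as follows: active = cell-killing curve crosses a set limit at a concentration no more than twice the top valid dose; inconclusive = flat curve with a 30 to 70% loss, or a poor fit; inactive = signal rising instead of falling, and the rest.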

Tested on: TC71 Ewing sarcoma viability, CellTiter-Glo ATP, 72 h
Assay: TC71 Ewing sarcoma cell killing, confirmation, luminescence, cherry-picked samples, retest (AID 720570)

For C[C@H](O)C#Cc1ccc2c(c1)O[C@@H](CN(C)Cc1ccc(-c3ccccc3)cc1)[C@H](C)CN([C@@H](C)CO)S2(=O)=O, the AC35 was 3.82 µM and 4.62 µM.
CN(Cc1cnc2nc(N)nc(N)c2n1)c1ccc(C(=O)N[C@@H](CCC(=O)O)C(=O)O)cc1 was tested, and the AC35 was 0.0194 µM and 0.0201 µM.
Cc1ccc(S(=O)(=O)N(C)C[C@@H]2Oc3ccc(NC(=O)CCCCCC(=O)Nc4ccccc4N)cc3CC(=O)N([C@@H](C)CO)C[C@@H]2C)cc1 was tested, and the AC35 was > 21 µM (inactive).

In order of rising AC35:
1. C[C@H]1O[C@@H](O[C@H]2[C@@H](O)C[C@H](O[C@H]3[C@@H](O)C[C@H](O[C@H]4CC[C@@]5(C)[C@H](CC[C@@H]6[C@@H]5C[C@@H](O)[C@]5(C)[C@@H](C7=CC(=O)OC7)CC[C@]65O)C4)O[C@@H]3C)O[C@@H]2C)C[C@H](O)[C@@H]1O  0.283 µM
2. Nc1nc(=S)c2ncn([C@@H]3O[C@H](CO)[C@@H](O)[C@H]3O)c2[nH]1  1.74 µM
3. CCCCCCCN(c1ccccc1)[C@@H]1C[C@H]2CCCC(=O)N3CC[C@@H](C1)[C@@H]23  1.95 µM
4. CCCCCCCCCCCCCCCCCCNc1ccn(C2OC(COP(=O)(O)OCC3OC(n4cc(F)c(=O)[nH]c4=O)CC3O)C(O)C2O)c(=O)n1 (stereo not drawn)  2.77 µM
5. N=c1ccn2c(n1)O[C@H]1[C@H](O)[C@@H](CO)O[C@H]12  3 µM
6. CN1c2ccc(-c3ccc(C#N)cc3)cc2[C@H]2[C@H](CCN2S(=O)(=O)c2cccc(F)c2)[C@H]1CO  3.77 µM
7. C[C@H]1CN([C@@H](C)CO)S(=O)(=O)c2ccc(C#Cc3ccncc3)cc2O[C@@H]1CN(C)C(=O)Nc1ccc2c(c1)OCO2  4.14 µM
8. O=C1/C(=C\c2ccccc2)CN(C(=O)CCN2CCCCC2)C/C1=C/c1ccccc1  4.22 µM
9. Cc1ccccc1S(=O)(=O)N1CC[C@@H]2[C@@H](CO)Nc3ccc(-c4ccc(C#N)cc4)cc3[C@@H]21  4.8 µM
10. CN1C(=O)c2cc(NC(=O)c3ccc(C(F)(F)F)cc3)ccc2OC[C@@H]2O[C@@H](CC(=O)NC3Cc4ccccc4C3)CC[C@H]21  4.86 µM
11. COC1C(O)C(C)OC(OC2C(Oc3cccc4c(O)c5c(=O)oc6ccc(C)c7c(=O)oc(c34)c5c67)OC(C)C(O)C2O)C1O (stereo not drawn)  5.5 µM
12. Cn1ccc2cc(-c3ccc4ncnc(NCc5cccs5)c4c3)ccc21  5.67 µM
13. CCN1C/C(=C/c2ccc(N3CCOCC3)cc2)C(=O)/C(=C/c2ccc(N3CCOCC3)cc2)C1  5.92 µM
14. COc1cc2oc3cc(C#Cc4ccc(N)cc4)ccc3c(=O)c2cc1OC  6.86 µM
15. CC(C)(C)C(=O)Cn1ncc(Cl)c(Cl)c1=O  7.6 µM
16. CCOc1cc(/C=N/Nc2cc(C)nc(-n3nc(C)cc3C)n2)ccc1O  7.76 µM
17. C[C@H](CO)N1C[C@H](C)[C@H](CN(C)Cc2ccc(C(=O)Nc3ccccc3N)cc2)Oc2ccc(NS(=O)(=O)c3cccs3)cc2C1=O  8.61 µM
18. Cc1ccc(S(=O)(=O)Nc2ccc3c(c2)C(=O)N([C@H](C)CO)C[C@@H](C)[C@@H](CN(C)Cc2ccc(C(=O)Nc4ccccc4N)cc2)O3)cc1  11 µM
19. Nc1ncn([C@@H]2O[C@H](CO)[C@@H](O)[C@H]2O)c(=O)n1  11.7 µM
20. Cc1ccc(/C=N/Nc2ccnc3cc(Cl)ccc23)c(C)c1  11.8 µM
21. Cc1ccc(S(=O)(=O)Nc2ccc3c(c2)C(=O)N([C@@H](C)CO)C[C@H](C)[C@@H](CN(C)Cc2ccc(C(F)(F)F)cc2)OCCCC[C@@H](C)O3)cc1  11.8 µM
22. COc1ccc(C2c3cc4c(cc3OC(NNC(N)=O)C2C)OCO4)cc1 (stereo not drawn)  12 µM
23. CCCCCCCCNC(C)C(O)c1ccc(SC(C)C)cc1 (stereo not drawn)  12.1 µM
24. CCOC(=O)[C@]12Cc3ccc(C)cc3[C@H]1N(C1CCCCC1)C(=O)c1ccccc12  12.1 µM
25. O=C1NC(=O)N(c2ccccc2)C(=O)/C1=C\C=C\c1ccccc1  12.6 µM
26. C[C@@H]1CN([C@H](C)CO)C(=O)c2cc(NC(=O)CCCCCC(=O)Nc3ccccc3N)ccc2O[C@@H]1CN(C)Cc1ccc(Cl)c(Cl)c1  12.8 µM
27. Cc1c(Cc2ccc3c(c2)OCO3)sc(NC(=O)C(C)(C)C)c1C#N  13.2 µM
28. S=c1[nH]nc(-c2cc(-c3ccccc3)n[nH]2)n1/N=C/C(Br)=C/c1ccccc1  13.2 µM
29. C=C1C(=O)OC2C1CCC(C)C1C=CC(=O)C12C (stereo not drawn)  13.8 µM
30. Cc1cc(C(=O)Nc2ccc3c(c2)C(=O)N(C)[C@@H]2CC[C@H](CC(=O)N[C@H](C)c4ccccc4)O[C@H]2CO3)no1  14 µM
31. C[C@H]1CN([C@@H](C)CO)C(=O)Cc2cc(NC(=O)CCCCCC(=O)Nc3ccccc3N)ccc2O[C@H]1CN(C)Cc1ccc(Cl)c(Cl)c1  14.1 µM
32. C[C@@H]1CN([C@@H](C)CO)C(=O)c2cc(NS(=O)(=O)c3ccc(F)cc3)ccc2O[C@@H]1CN(C)Cc1ccc(C(=O)Nc2ccccc2N)cc1  17.5 µM
33. COc1cccc(OC)c1C(=O)Nc1cc(C)nn1-c1nc2ccccc2[nH]1  18.2 µM
34. C/C(=N\NC(=O)c1n[nH]c2c1CCC2)c1cccs1  20.2 µM
35. COc1ccc(/C=C/C(=O)c2ccc(C(=O)/C=C/c3ccc(OC)c(OC)c3)cc2)cc1OC  20.4 µM
36. Oc1c(Cl)cc(Cl)c2cccnc12  20.7 µM
37. CCc1ccc(Cn2ncc3c(C(=O)O)cc(C)nc32)cc1  20.8 µM
38. C#CCOCCOCCOCCNc1nc(N2CCN(C(=O)CCCCCCCCCCNC(=O)Cn3cc(C[C@@H](C)O)nn3)CC2)nc(N2CCN(C(=O)CCCCCCCCCCNC(=O)[C@H](CO)n3cc(CCCSC)nn3)CC2)n1  21.5 µM
39. COc1ccc(C(CCNCc2ccc(OC(C)C)cc2)C(C)C)cc1 (stereo not drawn)  21.8 µM
40. O=C1NC(=S)NC(=O)C1=Cc1cccn1-c1ccc(O)cc1  22.2 µM
